In patent US10088490B2, “Assay for analytes using multiple receptors” (Siemens Healthcare Diagnostics Inc., priority 2010, dated 2018):

Assays:
Assay type in all cases: binding
[1] = system: Antibody A specific for cortisol (clone 16DC/17.7, IgG1κ); assay: LOCI competitive cortisol immunoassay, cross-reactivity screening with Biotinylated Antibody A Reagent; details: 100% A Biotinylated Antibody; steroid-stripped serum with cortisol (5 ng/dL)
Description: (§1) The antibodies were subjected to analytical size exclusion chromatography prior to any manipulations.
(§2) NHS-PEO4-Biotin was dissolved fresh at 10 mg/mL in Antibody Dialysis Buffer. […] The mixture was rocked at 25° C. for exactly 3 hours. A 200 mM solution of glycine was prepared by dissolving 750 mg glycine in Antibody Dialysis Buffer to a total volume of 50 mL. At the end of the 3-hour biotinylation reaction, 1.52 mL of the 200 mM glycine solution was added to the reaction mixture. The quenched reaction mixture was rocked an additional 60 minutes at 25° C.
(§3) The biotinylated antibody was then purified using preparatory HPLC using Antibody Dialysis Buffer as the mobile phase. […] This reagent was designated as the Biotinylated Antibody Reagent.
(§4) The assay used for screening purposes was conducted on the DIMENSION® VISTA® instrument (system) (Siemens Healthcare Diagnostics Inc., Newark Del.). Initially, 20 μL Biotinylated Antibody Reagent with 15 μL system water was added to the vessel. After 22 seconds, 15 μL sample with 15 μL system water were added to the vessel. After almost 4 minutes, 20 μL Chemibead Reagent with 15 μL system water were added to the vessel. Approximately 7 minutes later, 20 μL Sensibead Reagent with 135 μL system water was added to the vessel. The LOCI® read was taken after approximately 5 minutes. The assay from the first reagent addition to the final read took approximately 16 minutes. The contents of the vessel when the final read is taken were as follows: 2 ng/mL Biotinylated Antibody Reagent, 4 μg/mL Chemibead Reagent, 56 μg/mL Sensibead Reagent, and […] sample. The assay is a competitive format, which means that the greater the concentration of analyte in the sample, the smaller is the signal generation. This is because a detectable complex is formed by the Biotinylated Antibody Reagent, Chemibead Reagent, and Sensibead Reagent in the absence of analyte. The presence of analyte decreases the proportion of Biotinylated Antibody Reagent that is free to form detectable complexes.
(§5) Initial testing used Biotinylated Antibody A Reagent with the other reagents and the methodology described above to analyze the steroid-stripped serum with cortisol. The panel of 34 cross-reactants were individually added to the steroid-stripped serum with a defined concentration of cortisol (5 ng/dL) and assayed. Cross-reactivity data were calculated as follows:
(§6) [formula] The same testing was performed using Biotinylated Antibody L Reagent. The compilation of the percent cross-reactivities for the 34 compounds is referred to as the cross-reactivity profile. The apparent cortisol concentration is the cortisol value obtained when testing a sample containing cortisol and the interfering substance by the above test method that also detects the interfering substance to some degree.

[2] = system: mixture of Biotinylated Antibody A Reagent and Biotinylated Antibody L Reagent; assay: LOCI competitive cortisol immunoassay, cross-reactivity with mixtures of Biotinylated Antibody A and L Reagents; details: for percent cross reactivity: steroid-stripped serum with cortisol
Description: as §4, §5, §6
A further study was performed by mixing Biotinylated Antibody A Reagent with Biotinylated Antibody L Reagent in a 50:50 mixture; 80% Biotinylated Antibody A Reagent: 20% Biotinylated Antibody L Reagent; 75% Biotinylated Antibody A Reagent: 25% Biotinylated Antibody L Reagent; and 70% Biotinylated Antibody A Reagent: 30% Biotinylated Antibody L Reagent. […] These reagents were used to test cross-reactivity in stripped serum with cortisol.

[3] = system: Antibody L specific for cortisol (clone XM210, IgG2a); assay: LOCI competitive cortisol immunoassay, cross-reactivity screening with Biotinylated Antibody L Reagent; details: 100% L Biotinylated Antibody; steroid-stripped serum with cortisol (5 ng/dL)
Description: as §1, §2, §3, §4, §5, §6

[4] = 70% A 30% L Biotinylated Antibody
[5] = 75% A 25% L Biotinylated Antibody
[6] = 80% A 20% L Biotinylated Antibody

Row | Structure (SMILES) | percent cross reactivity [1] | percent cross reactivity [2, 4] | percent cross reactivity [2, 5] | percent cross reactivity [2, 6] | percent cross reactivity [3] | decrease of percent cross-reactivity ([2]; incorporation of 25% Biotinylated Antibody Reagent L versus 100% A)
1 | C[C@]12CC[C@@H](O)C[C@H]1CC[C@@H]1[C@@H]2CC[C@@]2(C)[C@H]1CC[C@]2(O)C(=O)CO [tetrahydro-11-deoxycortisol] | 0.3% | 0.2% | 0.2% | 0.2% | 0.2% | 
2 | C[C@]12CCC(=O)C=C1CC[C@@H]1[C@@H]2C(=O)C[C@@]2(C)[C@H]1CC[C@]2(O)[C@@H](O)CO [20α-dihydrocortisone] | 1.5% | 0.4% | 0.5% | 0.5% | 0.2% | 
3 | C[C@]12C=CC(=O)C=C1CC[C@@H]1[C@@H]2[C@@H](O)C[C@@]2(C)[C@H]1CC[C@]2(O)C(=O)CO [prednisolone] | 13.6% | 12.4% | 12.2% | 12.4% | 10.2% | 
4 | C[C@]12CCC(=O)C=C1[C@H](O)C[C@@H]1[C@@H]2[C@@H](O)C[C@@]2(C)[C@H]1CC[C@]2(O)C(=O)CO [6β-hydroxycortisol] | 2.7% | 6.9% | 6.2% | 5.5% | 100.0% | 
5 | C[C@]12CCC(=O)C=C1CC[C@@H]1[C@@H]2C(=O)C[C@@]2(C)[C@H]1CC[C@]2(O)[C@H](O)CO [20β-dihydrocortisone] | 0.1% | 0.1% | 0.1% | 0.1% | 0.1% | 
6 | C[C@]12CC(=O)[C@H]3[C@@H](CCC4=CC(=O)CC[C@@]43C)[C@@H]1CC[C@@H]2C(=O)CO [dehydrocorticosterone] | 0.6% | 0.7% | 0.7% | 0.7% | 0.8% | 
7 | CC(=O)[C@@]1(O)CC[C@H]2[C@@H]3CCC4=CC(=O)CC[C@]4(C)[C@H]3CC[C@@]21C [17α-hydroxyprogesterone] | 24.1% | 1.6% | 1.8% | 2.1% | 0.9% | 
8 | C[C@]12CC[C@@H](O)C[C@@H]1CC[C@@H]1[C@@H]2[C@@H](O)C[C@@]2(C)[C@H]1CC[C@]2(O)C(=O)CO [allotetrahydrocortisol] | 4.7% | 7.1% | 6.5% | 6.0% | 8.1% | 
9 | C[C@]12CCC(=O)C=C1CC[C@@H]1[C@@H]2C(=O)C[C@@]2(C)[C@H]1CC[C@]2(O)C(=O)CO [cortisone] | 41.7% | 2.5% | 2.8% | 3.1% | 1.4% | greater than 90%
10 | C[C@]12CCC(=O)C[C@H]1CC[C@@H]1[C@@H]2[C@@H](O)C[C@@]2(C)[C@H]1CC[C@]2(O)C(=O)CO [5β-dihydrocortisol] | 0.4% | 1.0% | 0.9% | 0.8% | 1.3% | 
